Measured values from patent publication US12023390B2, “Isomerically pure 18F-labelled tetrahydrofolates” (MERCK PATENT GMBH, priority 2017, dated 2024).
Where two headings read alike, the source gives them in different places. Values belong to the molecule of their own block, whether it stands above or below them.

Experiments:
[1] = molecular target: T1, FR-α (Homo sapiens, UniProt P15328); assay: Displacement assay with [^3H]folic acid using KB cells; assay type: binding; settings: for fold lower affinity to the FR-α compared to the oxidized form: versus 3′-aza-2′-fluorofolic acid
T1 construct: endogenous in cells; host or cells: KB cells

[2] = Distribution coefficient (log D7.4), shake flask method; assay type: physicochemical; settings: n-octanol / phosphate buffer pH 7.4, room temperature
[3] = system: FR-positive KB cells; assay: Cell uptake and internalization using FR-positive KB cells; assay type: cell-based
Method: (§1) In order to investigate FR-specific cell uptake and internalization, cell uptake and internalization of 6R-[^18F]1 and 6S-[^18F]1 were carried out using FR-positive KB cells. Cell uptake increased constantly over time for both diastereoisomers resulting in an uptake of about 60% (calculated per 0.3 mg of protein) of total added radioactivity after 3 h of incubation at 37° C. (FIG. 22).

[4] = Metabolite studies / in vivo stability (radio-UPLC of blood plasma, liver, urine); design: species or system mice
Method: as §1
The folate radiotracer 6S/6R-[^18F]5 (1:1 ratio, 53.7-52.3 MBq; 0.62-1.15 nmol) were intravenously injected into mice in order to determine the in vivo stability of the tracers. […] Ice-cold methanol containing 10 mg/mL 2-mercaptoethanol and 0.025% (v/v) ammonium hydroxide was added to the blood plasma, homogenized liver and urine in order to precipitate the proteins.^6 After centrifugation, the supernatants of the blood plasma, liver and urine samples were analyzed by radio-UPLC (FIG. 4).

[5] = molecular target: T2, RT16 (FR-α) (Homo sapiens, UniProt P15328); assay: Cell uptake and internalization in FR-α transfected CHO cells (RT16); assay type: cell-based
T2 construct: expressed in transfected cells; host or cells: CHO cells (RT16)
Method: (§2) The uptake and internalization of the oxidized (^18F-AzaFol) and reduced ^18F-folates (6S-isomer and 6R-isomer of ^18F-5-Me-Aza-THF) in D4 and RT16 cells which express the FR-α and FR-β, […] was studied. Both cell lines were kindly provided by Larry Matherly Wayne State University, Detroit, U.S.; Golani et al., J Med Chem, 2016, 59, 7856.
The internalized fraction of the radiotracers reached 8-10% after 1 h and increased slightly up to 9-12% after 3 h incubation.

[6] = molecular target: T3, D4 (FR-β) (Homo sapiens, UniProt P14207); assay: Cell uptake and internalization in FR-β transfected CHO cells (D4); assay type: cell-based; settings: for uptake into D4 cells (in words): D4 (FR-β) cells; for internalized fraction / uptake: D4 cells
T3 construct: expressed in transfected cells; host or cells: CHO cells (D4)
Method: as §2
When using D4 cells that express the FR-β, the uptake of ^18F-AzaFol and the 6S-isomer of the reduced radiotracer reached approximately 70% after 1 h incubation and 80% after 3 h incubation. The internalized fraction of ^18F-AzaFol and the 6S-isomer of the reduced version was 20% and 12%, respectively, after 1 h incubation. These numbers increased slightly when the incubation time was extended to 3 h. […] No change was observed after additional two hours of incubation.

[7] = system: KB tumor xenografts
[8] = system: KB tumor-bearing mice; assay: Biodistribution studies in KB tumor-bearing mice
[9] = KB cells, displacement of [^3H]folic acid, n = 3
[10] = KB tumor-bearing mice, 30 min p.i.
[11] = KB tumor-bearing mice, 30 min p.i., ratio
[12] = KB tumor-bearing mice, 60 min p.i.
[13] = KB tumor-bearing mice, 60 min p.i. & Folic Acid (100 μg 10 min prior)
[14] = KB tumor-bearing mice, 60 min p.i., ratio
[15] = KB tumor-bearing mice, 90 min p.i.
[16] = KB tumor-bearing mice, 90 min p.i., ratio
[17] = KB tumor-bearing mice, 90 min p.i., listed as 6R-form
[18] = KB tumor-bearing mice, 90 min p.i., listed as 6R-isomer

T1 sequence (P15328 25-234): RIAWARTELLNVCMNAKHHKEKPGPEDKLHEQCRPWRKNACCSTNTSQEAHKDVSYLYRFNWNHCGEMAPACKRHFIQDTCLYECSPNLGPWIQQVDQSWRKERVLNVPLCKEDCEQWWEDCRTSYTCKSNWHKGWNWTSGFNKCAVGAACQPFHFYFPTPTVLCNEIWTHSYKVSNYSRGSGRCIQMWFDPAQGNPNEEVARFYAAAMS
T3 sequence (P14207 17-230): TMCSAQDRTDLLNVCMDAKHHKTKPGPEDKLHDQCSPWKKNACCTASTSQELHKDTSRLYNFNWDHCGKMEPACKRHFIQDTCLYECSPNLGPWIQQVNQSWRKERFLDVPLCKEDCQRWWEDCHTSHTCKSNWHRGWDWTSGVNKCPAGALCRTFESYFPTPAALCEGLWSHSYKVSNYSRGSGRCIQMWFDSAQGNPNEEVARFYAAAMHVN
T2 sequence (P15328 25-234): as the sequence (P15328 25-234) above

Molecule: CN1c2c([nH]c(N)nc2=O)NC[C@@H]1CNc1ccc(C(=O)N[C@@H](CCC(=O)O)C(=O)O)cc1 [Compound 6S-5-MTHF, 6S-5-MTHF, reference compound]
IC50 [1, 9]: 20.6 ± 0.4 nM

Molecule: CN1c2c(nc(N)[nH]c2=O)NC[C@H]1CNc1ccc(C(=O)N[C@@H](CCC(=O)O)C(=O)O)cc1 [Compound 6R-5-MTHF, 6R-5-MTHF, reference compound]
IC50 [1, 9]: 25.8 ± 5.8 nM

Molecule: Nc1nc2ncc(CNc3ccc(C(=O)N[C@@H](CCC(=O)O)C(=O)O)c(F)n3)nc2c(=O)[nH]1 [3′-aza-2′-[^18F]fluorofolic acid, reference compound]
IC50 [1, 9]: 1.4 ± 0.5 nM

Now from value to molecule, other results behind:

logD7.4 [2]: −4.6 ± 0.1
in vivo stability ([4]; samples taken p.i.): Only intact parent compounds were found
uptake into RT16 cells (in words) [5]: higher uptake
uptake into D4 cells (in words) [6]: very low
internalized fraction ([6]; 1 h incubation): about 1%
uptake ([6]; 1 h incubation): 3%
Biodistribution: Blood [8, 10]: 3.13 ± 0.31 % IA/g
Biodistribution: Bone [8, 10]: 2.73 ± 0.14 % IA/g
Biodistribution: Feaces [8, 10]: 12.2 ± 3.54 % IA/g
Biodistribution: Gall Bladder [8, 10]: 37.5 ± 11.7 % IA/g
Biodistribution: Heart [8, 10]: 2.75 ± 0.33 % IA/g
Biodistribution: Intestines [8, 10]: 7.68 ± 1.28 % IA/g
Biodistribution: KB Tumor [8, 10]: 13.3±1.80 % IA/g
Biodistribution: Kidneys [8, 10]: 34.5 ± 2.45 % IA/g
Biodistribution: Liver [8, 10]: 14.3 ± 1.36 % IA/g
Biodistribution: Lung [8, 10]: 3.37 ± 0.32 % IA/g
Biodistribution: Muscle [8, 10]: 1.54 ± 0.13 % IA/g
Biodistribution: Salivary glands [8, 10]: 7.16 ± 0.51 % IA/g
Biodistribution: Spleen [8, 10]: 8.25 ± 0.96 % IA/g
Biodistribution: Stomach [8, 10]: 2.20 ± 0.23 % IA/g
Tu-to-blood [8, 11]: 4.27 ± 0.61
Tu-to-liver [8, 11]: 0.94 ± 0.14
Biodistribution: Kidneys ([8]; KB tumor-bearing mice, 30 min p.i., listed as 6R-form): 34.5±2.45 % IA/g
Biodistribution: Liver ([8]; KB tumor-bearing mice, 30 min p.i., listed as 6R-tracer): 14.3±1.36 % IA/g
Biodistribution: Blood [8, 12]: 2.16 ± 0.25 % IA/g
Biodistribution: Bone [8, 12]: 2.43 ± 0.10 % IA/g
Biodistribution: Feaces [8, 12]: 17.8 ± 5.09 % IA/g
Biodistribution: Gall Bladder [8, 12]: 39.0 ± 22.17 % IA/g
Biodistribution: Heart [8, 12]: 2.38 ± 0.18 % IA/g
Biodistribution: Intestines [8, 12]: 6.93 ± 1.06 % IA/g
Biodistribution: KB Tumor [8, 12]: 18.1 ± 2.86 % IA/g
Biodistribution: Kidneys [8, 12]: 27.3 ± 3.07 % IA/g
Biodistribution: Liver [8, 12]: 14.1 ± 0.80 % IA/g
Biodistribution: Lung [8, 12]: 2.80 ± 0.29 % IA/g
Biodistribution: Muscle [8, 12]: 1.36 ± 0.15 % IA/g
Biodistribution: Salivary glands [8, 12]: 6.49 ± 0.93 % IA/g
Biodistribution: Spleen [8, 12]: 8.25 ± 0.88 % IA/g
Biodistribution: Stomach [8, 12]: 2.35 ± 0.49 % IA/g
Biodistribution: Blood [8, 13]: 1.52 ± 0.43 % IA/g
Biodistribution: Bone [8, 13]: 1.51 ± 0.34 % IA/g
Biodistribution: Feaces [8, 13]: 15.2 ± 1.75 % IA/g
Biodistribution: Gall Bladder [8, 13]: 26.5 ± 16.6 % IA/g
Biodistribution: Heart [8, 13]: 1.60 ± 0.46 % IA/g
Biodistribution: Intestines [8, 13]: 5.23 ± 0.73 % IA/g
Biodistribution: KB Tumor [8, 13]: 3.41 ± 0.88 % IA/g
Biodistribution: Kidneys [8, 13]: 4.80 ± 1.94 % IA/g
Biodistribution: Liver [8, 13]: 9.64 ± 1.55 % IA/g
Biodistribution: Lung [8, 13]: 1.73 ± 0.43 % IA/g
Biodistribution: Muscle [8, 13]: 1.05 ± 0.42 % IA/g
Biodistribution: Salivary glands [8, 13]: 2.61 ± 0.70 % IA/g
Biodistribution: Spleen [8, 13]: 3.89 ± 0.40 % IA/g
Biodistribution: Stomach [8, 13]: 2.02 ± 0.52 % IA/g
Tu-to-blood [8, 14]: 8.47 ± 1.62
Tu-to-kidney [8, 14]: 0.67 ± 0.14
Tu-to-liver [8, 14]: 1.29 ± 0.18
Biodistribution: Blood [8, 15]: 1.92 ± 0.19 % IA/g
Biodistribution: Bone [8, 15]: 3.53 ± 0.90 % IA/g
Biodistribution: Feaces [8, 15]: 13.1 ± 6.07 % IA/g
Biodistribution: Gall Bladder [8, 15]: 56.7 ± 13.2 % IA/g
Biodistribution: Heart [8, 15]: 2.39 ± 0.47 % IA/g
Biodistribution: Intestines [8, 15]: 8.01 ± 2.72 % IA/g
Biodistribution: KB Tumor [8, 15]: 23.9 ± 2.74 % IA/g
Biodistribution: Kidneys [8, 15]: 29.8 ± 7.46 % IA/g
Biodistribution: Liver [8, 15]: 16.8 ± 3.58 % IA/g
Biodistribution: Lung [8, 15]: 2.92 ± 0.53 % IA/g
Biodistribution: Muscle [8, 15]: 1.48 ± 0.31 % IA/g
Biodistribution: Salivary glands [8, 15]: 7.31 ± 1.17 % IA/g
Biodistribution: Spleen [8, 15]: 13.0 ± 4.14 % IA/g
Biodistribution: Stomach [8, 15]: 2.51 ± 0.42 % IA/g
Tu-to-blood [8, 16]: 12.5 ± 1.46
Tu-to-liver [8, 16]: 1.46 ± 0.26
Biodistribution: Kidneys [8, 17]: 29.8±7.46 % IA/g
Biodistribution: Liver [8, 17]: 16.8±3.58 % IA/g
Biodistribution: Salivary glands [8, 17]: 7.31±1.17 % IA/g
Biodistribution: KB Tumor [8, 18]: 23.9±2.74 % IA/g
Biodistribution: Liver [8, 18]: 16.8±3.58 % IA/g
Biodistribution: Spleen [8, 18]: 13.0±4.14 % IA/g
Specificity of tumor binding ([8]; blocking by pre-injection of folic acid): 85%
factor of increase of tumor-to-kidney ratio ([8]; from 30 min p.i. to 90 min p.i.): 2.1
Molecule: 6R-3′-aza-2′-[^18F]fluoro-5-MTHF [6R-[^18F]1]
internalized activity ([3]; 37° C.): around 8%
cell uptake (% of total added radioactivity) ([3]; 3 h incubation at 37° C., calculated per 0.3 mg of protein): about 60%
PET/CT: KB tumor xenograft uptake ([7]; already 1 h p.i.): High KB tumor xenograft uptake
PET/CT: blocking studies, uptake in all FR-positive tissues ([7]; folic acid injected 10 minutes prior to radiotracer): remarkably reduced uptake

uptake into RT16 cells (in words) [5]: significant uptake
uptake into D4 cells (in words) [6]: significant uptake
internalized fraction ([6]; 1 h incubation): 20%
uptake ([6]; 1 h incubation): approximately 70%
uptake ([6]; 3 h incubation): ~80%
Molecule: Nc1nc2ncc(CNc3ccc(C(=O)N[C@@H](CCC(=O)O)C(=O)O)c([18F])n3)nc2c(=O)[nH]1 [3′-aza-2′-[^18F]fluorofolic acid, reference compound]
in vivo stability (radiometabolites) ([4]; comparison tracer): radiometabolites in the liver were detected

IC50 [1]: 27.1 ± 3.7 nM
fold lower affinity to the FR-α compared to the oxidized form [1]: about 17 fold
Molecule: CN1c2c(nc(N)[nH]c2=O)NCC1CNc1ccc(C(=O)NC(CCC(=O)O)C(=O)O)c(F)n1 (stereo not drawn) [Compound 6R-1, 6R-3′-Aza-2′-Fluoro-5-Methyltetrahydrofolate]

IC50 [1]: 23.8 ± 4 nM
fold lower affinity to the FR-α compared to the oxidized form [1]: about 17 fold
Molecule: CN1c2c(nc(N)[nH]c2=O)NC[C@H]1CNc1ccc(C(=O)N[C@@H](CCC(=O)O)C(=O)O)c(F)n1 [Compound 6S-1, 6S-3′-Aza-2′-Fluoro-5-Methyltetrahydrofolate]
